US11446287B2, “Compounds and methods for EP300 or CBP modulation and indications therefor” (Opna Immuno-Oncology SA, priority 2019, dated 2022)

target: T1, Recombinant human CBP containing the bromodomain (CBP-BD (1043-1159)) (Homo sapiens, UniProt Q92793); assay: CBP Alphascreen binding assay; conditions: read-out: CREBBP (CBP) IC50
T1 construct: Recombinant human CBP bromodomain (CBP-BD (1043-1159)); made in house; host or cells: E. coli BL21-CodonPlus (DE3), modified pET vector
Summary of the method: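 Buffer: 50 mM HEPES pH 7.5, 50 mM NaCl, 0.01% BSA, 0.01% Triton X-100, 2 mM DTT. The signal was normalised to plate controls and fitted with a four-parameter curve to give IC50.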

T1 sequence (Q92793 1081-1197): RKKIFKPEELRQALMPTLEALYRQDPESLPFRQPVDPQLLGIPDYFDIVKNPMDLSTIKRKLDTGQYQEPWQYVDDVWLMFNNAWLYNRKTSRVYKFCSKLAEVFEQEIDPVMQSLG

**Q.** With COc1ccncc1-n1cc(-c2ccc(C(=O)O)cc2OC(F)(F)F)c2cc(-c3c(C)noc3C)cnc21 [P-0176, 4-(5-(3,5-dimethylisoxazol-4-yl)-1-(4-methoxypyridin-3-yl)-1H-pyrrolo[2,3-b]pyridin-3-yl)-3-(trifluoromethoxy)benzoic acid] as the molecule, how does the IC50 read?
**A.** 0.1 to 1000 nM

**Q.** Which IC50 does the source give for Cc1noc(C)c1-c1cnc2c(c1)c(-c1ccc(C(=O)O)cc1OC(F)(F)F)cn2-c1cnccc1Cl [P-0177, 4-(1-(4-chloropyridin-3-yl)-5-(3,5-dimethylisoxazol-4-yl)-1H-pyrrolo[2,3-b]pyridin-3-yl)-3-(trifluoromethoxy)benzoic acid] here?
**A.** 0.1 to 1000 nM

**Q.** Which IC50 does the source give for Cc1noc(C)c1-c1cnc2c(c1)c(-c1ccc(C(=O)O)cc1C#CC1CC1)cn2[C@@H](C)c1ccccn1 [P-0178, (S)-3-(cyclopropylethynyl)-4-(5-(3,5-dimethylisoxazol-4-yl)-1-(1-(pyridin-2-yl)ethyl)-1H-pyrrolo[2,3-b]pyridin-3-yl)benzoic acid] here?
**A.** 1000 to 8000 nM

**Q.** For Cc1noc(C)c1-c1cnc2c(c1)c(-c1ccc(C(=O)O)cc1OC1CCC1)cn2[C@@H](C)c1ccccn1 [P-0179, (S)-3-cyclobutoxy-4-(5-(3,5-dimethylisoxazol-4-yl)-1-(1-(pyridin-2-yl)ethyl)-1H-pyrrolo[2,3-b]pyridin-3-yl)benzoic acid], which IC50 is on record?
**A.** 0.1 to 1000 nM

**Q.** Cc1noc(C)c1-c1cnc2c(c1)c(-c1ccc(C(=O)O)cc1OC(F)(F)F)cn2-c1ncccc1C(F)(F)F [P-0180, 4-(5-(3,5-dimethylisoxazol-4-yl)-1-(3-(trifluoromethyl)pyridin-2-yl)-1H-pyrrolo[2,3-b]pyridin-3-yl)-3-(trifluoromethoxy)benzoic acid] was tested. Which IC50 did it give?
**A.** 0.1 to 1000 nM

**Q.** Cc1noc(C)c1-c1cnc2c(c1)c(-c1ccc(C(=O)O)cc1C1CC1)cn2[C@@H](C)c1ccccn1 [P-0181, (S)-3-cyclopropyl-4-(5-(3,5-dimethylisoxazol-4-yl)-1-(1-(pyridin-2-yl)ethyl)-1H-pyrrolo[2,3-b]pyridin-3-yl)benzoic acid] was tested. Which IC50 did it give?
**A.** 0.1 to 1000 nM

**Q.** Cc1noc(C)c1-c1cnc2c(c1)c(-c1ccc(C(=O)O)cc1OC(F)(F)F)cn2-c1ncccc1F [P-0182, 4-(5-(3,5-dimethylisoxazol-4-yl)-1-(3-fluoropyridin-2-yl)-1H-pyrrolo[2,3-b]pyridin-3-yl)-3-(trifluoromethoxy)benzoic acid] was tested. Which IC50 did it give?
**A.** 0.1 to 1000 nM

**Q.** How did the IC50 turn out when Cc1noc(C)c1-c1cnc2c(c1)c(-c1ccc(C(=O)O)cc1OC(F)(F)F)cn2-c1ncccc1Cl [P-0183, 4-(1-(3-chloropyridin-2-yl)-5-(3,5-dimethylisoxazol-4-yl)-1H-pyrrolo[2,3-b]pyridin-3-yl)-3-(trifluoromethoxy)benzoic acid] was run?
**A.** 0.1 to 1000 nM

**Q.** For CCOc1cc(C(=O)O)cc(OCC)c1-n1cc(-c2ccc(F)cc2)c2ncc(-c3c(C)noc3C)cc21 [P-0184, 4-(6-(3,5-dimethylisoxazol-4-yl)-3-(4-fluorophenyl)-1H-pyrrolo[3,2-b]pyridin-1-yl)-3,5-diethoxybenzoic acid], which IC50 is on record?
**A.** 0.1 to 1000 nM

**Q.** CCOc1cc(C(=O)O)cc(OCC)c1-n1cc(-c2cccc(Cl)c2)c2ncc(-c3c(C)noc3C)cc21 [P-0185, 4-(3-(3-chlorophenyl)-6-(3,5-dimethylisoxazol-4-yl)-1H-pyrrolo[3,2-b]pyridin-1-yl)-3,5-diethoxybenzoic acid] was tested. Which IC50 did it give?
**A.** 0.1 to 1000 nM

**Q.** With CCOc1cc(C(=O)O)cc(OCC)c1-n1cc(-c2ccc(F)cc2F)c2ncc(-c3c(C)noc3C)cc21 [P-0186, 4-(3-(2,4-difluorophenyl)-6-(3,5-dimethylisoxazol-4-yl)-1H-pyrrolo[3,2-b]pyridin-1-yl)-3,5-diethoxybenzoic acid] as the molecule, how does the IC50 read?
**A.** 0.1 to 1000 nM

**Q.** With CCOc1cc(C(=O)O)cc(OCC)c1-n1cc(Cc2ccccn2)c2ncc(-c3c(C)noc3C)cc21 [P-0187, 4-(6-(3,5-dimethylisoxazol-4-yl)-3-(pyridin-2-ylmethyl)-1H-pyrrolo[3,2-b]pyridin-1-yl)-3,5-diethoxybenzoic acid] as the molecule, how does the IC50 read?
**A.** 0.1 to 1000 nM

**Q.** For Cc1noc(C)c1-c1cnc2c(c1)c(-c1ccc(C(=O)O)cc1OC(F)(F)F)cn2-c1ccccc1 [P-0188, 4-(5-(3,5-dimethylisoxazol-4-yl)-1-phenyl-1H-pyrrolo[2,3-b]pyridin-3-yl)-3-(trifluoromethoxy)benzoic acid], which IC50 is on record?
**A.** 0.1 to 1000 nM

**Q.** For Cc1ccncc1-n1cc(-c2ccc(C(=O)O)cc2OC(F)(F)F)c2cc(-c3c(C)noc3C)cnc21 [P-0189, 4-(5-(3,5-dimethylisoxazol-4-yl)-1-(4-methylpyridin-3-yl)-1H-pyrrolo[2,3-b]pyridin-3-yl)-3-(trifluoromethoxy)benzoic acid], which IC50 is on record?
**A.** 0.1 to 1000 nM

**Q.** CCOc1cc(C(=O)O)cc(OCC)c1-n1cc(CC2CCC2)c2ncc(-c3c(C)nnn3C)cc21 [P-0190, 4-(3-(cyclobutylmethyl)-6-(1,4-dimethyl-1H-1,2,3-triazol-5-yl)-1H-pyrrolo[3,2-b]pyridin-1-yl)-3,5-diethoxybenzoic acid] was tested. Which IC50 did it give?
**A.** 0.1 to 1000 nM

**Q.** For Cc1noc(C)c1-c1cnc2c(c1)c(-c1ccc(C(=O)O)cc1OC(F)(F)F)cn2CCN1CCOCC1 [P-0191, 4-(5-(3,5-dimethylisoxazol-4-yl)-1-(2-morpholinoethyl)-1H-pyrrolo[2,3-b]pyridin-3-yl)-3-(trifluoromethoxy)benzoic acid], which IC50 is on record?
**A.** 0.1 to 1000 nM

**Q.** For CCOc1cc(C(=O)O)cc(OCC)c1-n1cc(-c2ccc(C3CC3)nc2)c2ncc(-c3c(C)noc3C)cc21 [P-0192, 4-(3-(6-cyclopropylpyridin-3-yl)-6-(3,5-dimethylisoxazol-4-yl)-1H-pyrrolo[3,2-b]pyridin-1-yl)-3,5-diethoxybenzoic acid], which IC50 is on record?
**A.** 0.1 to 1000 nM

**Q.** With CCOc1cc(C(=O)O)cc(OCC)c1-n1cc(-c2cncc(Cl)c2)c2ncc(-c3c(C)noc3C)cc21 [P-0193, 4-(3-(5-chloropyridin-3-yl)-6-(3,5-dimethylisoxazol-4-yl)-1H-pyrrolo[3,2-b]pyridin-1-yl)-3,5-diethoxybenzoic acid] as the molecule, how does the IC50 read?
**A.** 0.1 to 1000 nM

**Q.** How did the IC50 turn out when CCOc1cc(C(=O)O)cc(OCC)c1-n1cc(-c2ccc(OC)cc2F)c2ncc(-c3c(C)noc3C)cc21 [P-0194, 4-(6-(3,5-dimethylisoxazol-4-yl)-3-(2-fluoro-4-methoxyphenyl)-1H-pyrrolo[3,2-b]pyridin-1-yl)-3,5-diethoxybenzoic acid] was run?
**A.** 0.1 to 1000 nM

**Q.** For CCOc1cc(C(=O)O)cc(OCC)c1-n1cc(-c2cnn(C)c2)c2ncc(-c3c(C)noc3C)cc21 [P-0195, 4-(6-(3,5-dimethylisoxazol-4-yl)-3-(1-methyl-1H-pyrazol-4-yl)-1H-pyrrolo[3,2-b]pyridin-1-yl)-3,5-diethoxybenzoic acid], which IC50 is on record?
**A.** 0.1 to 1000 nM

**Q.** How did the IC50 turn out when Cc1noc(C)c1-c1cnc2c(-c3ccccc3)cn(-c3ccc(C(=O)O)cc3OC(F)(F)F)c2c1 [P-0196, 4-(6-(3,5-dimethylisoxazol-4-yl)-3-phenyl-1H-pyrrolo[3,2-b]pyridin-1-yl)-3-(trifluoromethoxy)benzoic acid] was run?
**A.** 0.1 to 1000 nM

**Q.** Which IC50 does the source give for Cc1noc(C)c1-c1cnc2c(c1)c(-c1c(Cl)cc(C(=O)O)cc1Cl)cn2[C@@H](C)c1ccccn1 [P-0197, (S)-3,5-dichloro-4-(5-(3,5-dimethylisoxazol-4-yl)-1-(1-(pyridin-2-yl)ethyl)-1H-pyrrolo[2,3-b]pyridin-3-yl)benzoic acid] here?
**A.** 0.1 to 1000 nM

**Q.** With Cc1noc(C)c1-c1cnc2c(c1)c(-c1c(Cl)cc(C(=O)O)cc1OC(F)(F)F)cn2C(C1CC1)C1CC1 [P-0198, 3-chloro-4-(1-(dicyclopropylmethyl)-5-(3,5-dimethylisoxazol-4-yl)-1H-pyrrolo[2,3-b]pyridin-3-yl)-5-(trifluoromethoxy)benzoic acid] as the molecule, how does the IC50 read?
**A.** 0.1 to 1000 nM

**Q.** For Cc1noc(C)c1-c1cnc2c(c1)c(-c1ccc(C(=O)O)cc1OC(F)(F)F)cn2C(CC#N)C1CC1 (stereo not shown) [P-0199, 4-(1-(2-cyano-1-cyclopropylethyl)-5-(3,5-dimethylisoxazol-4-yl)-1H-pyrrolo[2,3-b]pyridin-3-yl)-3-(trifluoromethoxy)benzoic acid], which IC50 is on record?
**A.** 0.1 to 1000 nM

**Q.** How did the IC50 turn out when Cc1noc(C)c1-c1cnc2c(c1)c(-c1ccc(C(=O)O)cc1OC(F)(F)F)cn2C(CC#N)C1CCCC1 (stereo not shown) [P-0200, 4-(1-(2-cyano-1-cyclopentylethyl)-5-(3,5-dimethylisoxazol-4-yl)-1H-pyrrolo[2,3-b]pyridin-3-yl)-3-(trifluoromethoxy)benzoic acid] was run?
**A.** 0.1 to 1000 nM

**Q.** With CCOc1cc(C(=O)O)cc(OCC)c1-n1cc(-c2cnc(OC)nc2)c2ncc(-c3c(C)noc3C)cc21 [P-0201, 4-(6-(3,5-dimethylisoxazol-4-yl)-3-(2-methoxypyrimidin-5-yl)-1H-pyrrolo[3,2-b]pyridin-1-yl)-3,5-diethoxybenzoic acid] as the molecule, how does the IC50 read?
**A.** 0.1 to 1000 nM

**Q.** For Cc1noc(C)c1-c1cnc2c(c1)c(-c1ccc(C(=O)O)cc1OC(F)(F)F)cn2S(=O)(=O)C1CC1 [P-0202, 4-(1-(cyclopropylsulfonyl)-5-(3,5-dimethylisoxazol-4-yl)-1H-pyrrolo[2,3-b]pyridin-3-yl)-3-(trifluoromethoxy)benzoic acid], which IC50 is on record?
**A.** 0.1 to 1000 nM

**Q.** With Cc1noc(C)c1-c1cnc2c(c1)c(-c1ccc(C(=O)O)cc1OC(F)(F)F)cn2-c1ccnc(C(C)C)c1 [P-0203, 4-(5-(3,5-dimethylisoxazol-4-yl)-1-(2-isopropylpyridin-4-yl)-1H-pyrrolo[2,3-b]pyridin-3-yl)-3-(trifluoromethoxy)benzoic acid] as the molecule, how does the IC50 read?
**A.** 0.1 to 1000 nM

**Q.** With Cc1noc(C)c1-c1cnc2c(c1)c(-c1ccc(C(=O)O)cc1OC(F)(F)F)cn2-c1cnccc1C#N [P-0204, 4-(1-(4-cyanopyridin-3-yl)-5-(3,5-dimethylisoxazol-4-yl)-1H-pyrrolo[2,3-b]pyridin-3-yl)-3-(trifluoromethoxy)benzoic acid] as the molecule, how does the IC50 read?
**A.** 0.1 to 1000 nM

**Q.** For CCOc1cc(C(=O)O)cc(F)c1-n1cc(-c2ccccc2)c2ncc(-c3c(C)noc3C)cc21 [P-0205, 4-(6-(3,5-dimethylisoxazol-4-yl)-3-phenyl-1H-pyrrolo[3,2-b]pyridin-1-yl)-3-ethoxy-5-fluorobenzoic acid], which IC50 is on record?
**A.** 0.1 to 1000 nM

**Q.** For CCOc1cccc(C#N)c1-n1cc(-c2ccccc2)c2ncc(-c3c(C)noc3C)cc21 [P-0206, 2-(6-(3,5-dimethylisoxazol-4-yl)-3-phenyl-1H-pyrrolo[3,2-b]pyridin-1-yl)-3-ethoxybenzonitrile], which IC50 is on record?
**A.** 0.1 to 1000 nM
